Assay results published in patent US6635641B2 (Agouron Pharmaceuticals, Inc., priority 2000, dated 2003).
pIC50, pKi: −log10 of the molar value. Where a name gives a salt, the structure may show the parent alone. Read-outs that look alike come from different tables or passages of the source.

Tests used:
[1] = biological target: T1, unphosphorylated VEGF-R2Δ50 (FLVK) (Homo sapiens, UniProt P35968, DEL940-989/E990V); assay: VEGF-R2 coupled spectrophotometric assay, unphosphorylated construct (FLVK); format: biochemical; details: for inhibition at 0.05 µM: @ 50 nM;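 as to all read-outs here: Baculovirus-expressed cytosolic kinase domain, ADP formation linked via pyruvate kinase and lactate dehydrogenase to NADH oxidation, read as falling absorbance at 340 nm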
T1 construct: VEGF-R2Δ50 contains residues 806-939 and 990-1171; made in house; host or cells: baculovirus/insect cells
Description: A construct (VEGF-R2Δ50) of the cytosolic domain of human vascular endothelial growth factor receptor 2 (VEGF-R2) lacking the 50 central residues of the 68 residues of the kinase insert domain was expressed in a baculovirus/insect cell system. […] Autophosphorylation of the purified construct was performed by incubation of the enzyme at a concentration of 4 μM in the presence of 3 mM ATP and 40 mM MgCl2 in 100 mM Hepes, pH 7.5, containing 5% glycerol and 5 mM DTT, at 4° C. for 2 h.

[2] = system: human umbilical vein endothelial cells (HUVEC); assay: HUVEC proliferation assay (VEGF-stimulated, MTT); format: cell-based
Description: This assay determines the ability of a test compound to inhibit the growth factor-stimulated proliferation of human umbilical vein endothelial cells (“HUVEC”). HUVEC cells (passage 3-4, Clonetics, Corp.) were thawed into EGM2 culture medium (Clonetics Corp) in T75 flasks. Fresh EGM2 medium was added to the flasks 24 hours later. Four or five days later, cells were exposed to another culture medium (F12K medium supplemented with 10% fetal bovine serum (FBS), 60 μg/ml endothelial cell growth supplement (ECGS), and 0.1 mg/ml heparin). Exponentially-growing HUVEC cells were used in experiments thereafter. Ten to twelve thousand HUVEC cells were plated in 96-well dishes in 100 μl of rich, culture medium (described above). The cells were allowed to attach for 24 hours in this medium. The medium was then removed by aspiration and 105 μl of starvation media (F12K+1% FBS) was added to each well. After 24 hours, 15 μl of test agent dissolved in 1% DMSO in starvation medium or this vehicle alone was added into each treatment well; the final DMSO concentration was 0.1%. One hour later, 30 μl of VEGF (30 ng/ml) in starvation media was added to all wells except those containing untreated controls; the final VEGF concentration was 6 ng/ml. Cellular proliferation was quantified 72 hours later by MTT dye reduction, at which time cells were exposed for 4 hours MTT (Promega Corp.). Dye reduction was stopped by addition of a stop solution (Promega Corp.) and absorbance at 595 λ was determined on a 96-well spectrophotometer plate reader.

[3] = biological target: T2, phosphorylated VEGF-R2Δ50 (FLVK-P) (Homo sapiens, UniProt P35968, DEL940-989/E990V); assay: VEGF-R2 coupled spectrophotometric assay, phosphorylated construct (FLVK-P); format: biochemical
T2 construct: VEGF-R2Δ50 contains residues 806-939 and 990-1171; made in house; host or cells: baculovirus/insect cells
Source text: A construct (VEGF-R2Δ50) of the cytosolic domain of human vascular endothelial growth factor receptor 2 (VEGF-R2) lacking the 50 central residues of the 68 residues of the kinase insert domain was expressed in a baculovirus/insect cell system. Of the 1356 residues of full-length VEGF-R2, VEGF-R2Δ50 contains residues 806-939 and 990-1171, and also one point mutation (E990V) within the kinase insert domain relative to wild-type VEGF-R2. See commonly assigned, co-pending U.S. patent application Ser. No. 09/390,326, filed Sep. 7, 1999, incorporated by reference herein, for discussion of VEGF constructs and expression systems. Autophosphorylation of the purified construct was performed by incubation of the enzyme at a concentration of 4 μM in the presence of 3 mM ATP and 40 mM MgCl2 in 100 mM Hepes, pH 7.5, containing 5% glycerol and 5 mM DTT, at 4° C. for 2 h. […] See Parast et al., Biochemistry, 37, 16788-16801 (1998).
The production of ADP from ATP that accompanies phosphoryl transfer was coupled to oxidation of NADH using phosphoenolpyruvate (PEP) and a system having pyruvate kinase (PK) and lactic dehydrogenase (LDH). The oxidation of NADH was monitored by following the decrease of absorbance at 340 nm (e340=6.22 cm^−1 mM^−1) using a Beckman DU 650 spectrophotometer. Assay conditions for phosphorylated VEGF-R2Δ50 (indicated as FLVK-P in the tables below) were the following: 1 mM PEP; 250 μM NADH; 50 units of LDH/mL; 20 units of PK/mL; 5 mM DTT; 5.1 mM poly(E4Y1); 1 mM ATP; and 25 mM MgCl2 in 200 mM Hepes, pH 7.5. Assay conditions for unphosphorylated VEGF-R2Δ50 (indicated as FLVK in the tables) were the following: 1 mM PEP; 250 μM NADH; 50 units of LDH/mL; 20 units of PK/mL; 5 mM DTT; 20 mM poly(E4Y1); 3 mM ATP; and 60 mM MgCl2 and 2 mM MnCl2 in 200 mM Hepes, pH 7.5. Assays were initiated with 5 to 40 nM of enzyme. Ki values were determined by measuring enzyme activity in the presence of varying concentrations of test compounds. The data were analyzed using Enzyme Kinetic and Kaleidagraph software.

[4] = system: lung cancer cells (line MV522); assay: Cancer cell proliferation (MV522) assay (MTT); format: cell-based
Description: The protocol for assessing cellular proliferation in cancer cells is similar to that used for assessments in HUVEC cells. Two thousand lung cancer cells (line MV522, acquired from American Tissue Cultural Collection) were seeded in growth media (RPMI1640 medium supplemented with 2 mM glutamine and 10% FBS). Cells are allowed to attach for 1 day prior to addition of test agents and/or vehicles. Cells are treated simultaneously with the same test agents used in the HUVEC assay. Cellular proliferation is quantified by MTT dye reduction assay 72 hours after exposure to test agents. The total length of the assay is 4 days vs. 5 for HUVEC cells because MV522 cells are not exposed to starvation medium.

[5] = unphosphorylated VEGF-R2 construct
[6] = Homo sapiens, HUVEC proliferation with albumin, read-out: Huvec + Albumin IC50
[7] = Homo sapiens, HUVEC, read-out: HUVEC IC50
[8] = read-out: FLVK percent inhibition

T2 sequence (P35968 with tags, fused parts or gaps DEL940-989/E990V limits assumed): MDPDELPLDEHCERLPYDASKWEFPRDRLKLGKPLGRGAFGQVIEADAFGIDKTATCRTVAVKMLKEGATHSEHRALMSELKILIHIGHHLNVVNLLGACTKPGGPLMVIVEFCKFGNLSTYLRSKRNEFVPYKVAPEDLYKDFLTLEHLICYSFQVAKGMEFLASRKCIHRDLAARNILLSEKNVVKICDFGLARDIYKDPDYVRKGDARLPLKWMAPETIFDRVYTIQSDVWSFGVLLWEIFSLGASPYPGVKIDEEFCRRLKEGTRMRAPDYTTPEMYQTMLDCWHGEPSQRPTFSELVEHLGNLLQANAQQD
T1 sequence (P35968 with tags, fused parts or gaps DEL940-989/E990V limits assumed): as above

**Q.** With `Nc1ccc(CCc2cccc(C(=O)Nc3ccc(N4CCNCC4)c(C(F)(F)F)c3)c2)cn1` [AA-2, 3-[2-(6-Amino-pyridin-3-yl)-ethyl]-N-(4-piperazin-1-yl-3-trifluoromethyl-phenyl)-benzamide dihydrochloride] as the compound, how does the pKi [1, 5] read?
**A.** 7.60

**Q.** And the pIC50 [2, 6]?
**A.** 7.10

**Q.** With `O=C(Nc1ccc(N2CCNCC2)c(C(F)(F)F)c1)c1cccc(CCc2cnc3[nH]cnc3c2)c1` [BB-1, 3-[2-(3H-Imidazo[4,5-b]pyridin-6-yl)-ethyl]-N-(4-piperazin-1-yl-3-trifluoromethyl-phenyl)-benzamide dihydrochloride] as the compound, how does the pKi [1, 5] read?
**A.** 7.97

**Q.** And the pIC50 [2, 6]?
**A.** 6.03

**Q.** How did the pKi [1, 5] turn out when `O=C(Nc1ccc(N2CCNCC2)c(C(F)(F)F)c1)c1ccc(F)c(CCc2cnc3[nH]cnc3c2)c1` [DD-1, 4-Fluoro-3-[2-(3H-imidazo[4,5-b]pyridin-6-yl)-ethyl]-N-(4-piperazin-1-yl-3-trifluoromethyl-phenyl)-benzamide dihydrochloride] was run?
**A.** 8.25

**Q.** And the pIC50 [2, 6]?
**A.** 6.15

**Q.** How did the pKi [3] turn out when `N#Cc1ccc(NC(=O)c2cccc(CSc3ncnc4[nH]ncc34)c2)cc1C(F)(F)F` [Example B-12, N-[4-cyano-3-(trifluoromethyl)phenyl]-3-[(1H-pyrazolo[3,4-d]pyrimidin-4-yl-sulfanyl)methyl]benzamide] was run?
**A.** 7.55

**Q.** What about the pIC50 ([4]; MV522) of the same compound?
**A.** < 5.00

**Q.** And the pIC50 [2, 7]?
**A.** 6.28

**Q.** With `CC(C)c1cccc(NC(=O)c2cccc(CSc3ncnc4[nH]ncc34)c2)c1` [Example B-15, 3-[(1H-Pyrazolo[3,4-d]pyrimidin-4-yl)sulfanylmethyl]-N(3-isopropylphenyl)-benzamide] as the compound, how does the pKi [3] read?
**A.** 7.80

**Q.** What about the pIC50 ([4]; MV522) of the same compound?
**A.** < 5.00

**Q.** What about the pIC50 [2, 7] of the same compound?
**A.** 6.92

**Q.** How did the pKi [3] turn out when `O=C(Nc1cc(C(F)(F)F)cc(C(F)(F)F)c1)c1cccc(CSc2ncnc3[nH]ncc23)c1` [Example B-17, 3-[(1H-Pyrazolo[3,4-d]pyrimidin-4-yl)sulfanylmethyl]-N(3,5-bis-trifluoromethylphenyl)-benzamide] was run?
**A.** 8.16

**Q.** And the pIC50 ([4]; MV522)?
**A.** < 5.00

**Q.** And the pIC50 [2, 7]?
**A.** < 6.15

**Q.** `CC(C)(C)c1cccc(NC(=O)c2cccc(CSc3ncnc4[nH]ncc34)c2)c1` [Example B-18, 3-[(1H-Pyrazolo[3,4-d]pyrimidin-4-yl)sulfanylmethyl]-N(3-t-butylpheny)-benzamide] was tested. Which pKi [3] did it give?
**A.** 8.23

**Q.** What about the pIC50 [4] of the same compound?
**A.** < 5.00

**Q.** What about the pIC50 ([2]; read-out: HUVEC IC50) of the same compound?
**A.** 6.89

**Q.** With `Cc1cc(NC(=O)c2cccc(SCc3cnccn3)c2)ccc1C(C)C` [Example D-1, N-(4-Isopropyl-3-methylphenyl)-3-[(pyrazin-2-yl)methylsulfanyl]benzamide] as the compound, how does the pKi [3] read?
**A.** 7.55

**Q.** And the pIC50 ([4]; MV522)?
**A.** < 5.00

**Q.** What about the pIC50 [2, 7] of the same compound?
**A.** 6.28

**Q.** What does the source list for `COc1cc(/C=C/c2cc(CSc3cccc(C(=O)Nc4ccc5nc(C)ccc5c4)c3)[nH]n2)ccc1O` [Example F-1, 3-[{5-((E)-2-(4-Hydroxy-3-methoxyphenyl)ethenyl)-2H-pyrazol-3-yl}methylsulfanyl]-N-(2-methylquinolin-6-yl)benzamide]?
**A.** pKi [3]: 8.63; pIC50 ([4]; MV522): < 5.00; pIC50 [2, 7]: 6.15

**Q.** `COc1cc(/C=C/c2cc(CNc3cccc(C(=O)Nc4ccc(C(C)C)c(C)c4)c3)[nH]n2)ccc1O` [Example I-1, 3-[({3-[(E)-2-(4-hydroxy-3-methoxyphenyl)ethenyl]-1H-pyrazol-5-yl}methyl)amino]-N-(3-methyl-4-isopropylphenyl)benzamide] was tested. Which pKi [3] did it give?
**A.** 8.05

**Q.** And the pIC50 ([4]; MV522)?
**A.** < 5.00

**Q.** What about the pIC50 [2, 7] of the same compound?
**A.** 6.66

**Q.** Which results are given for `Cc1ccc2cc(NC(=O)c3cccc(OCc4cccnc4)c3)ccc2n1` [Example K-9, N-(2-Methyl-quinolin-6-yl)-3-(pyridin-3-yl)methoxy-benzamide]?
**A.** pKi [3]: 6.96; pKi [1]: 8.00

**Q.** Which results are given for `O=C(Nc1ccc(N2CCNCC2)c(C(F)(F)F)c1)c1ccc(F)c(OCc2cnc3ccccc3c2)c1` [Example R-17, 4-Fluoro-N-(4-piperazin-1-yl-3-trifluoromethyl-phenyl)-3-(quinolin-3-ylmethoxy)-benzamide]?
**A.** pKi [1]: 8.13; pIC50 [2, 7]: 7.49

**Q.** With `O=C(Nc1ccc(N2CCNCC2)c(C(F)(F)F)c1)c1ccc(F)c(OCc2cncc(Br)c2)c1` [Example R-25, 3-(5-Bromo-pyridin-3-ylmethoxy)-4-fluoro-N-(4-piperazin-1-yl-3-trifluoromethyl-phenyl)-benzamide] as the compound, how does the pKi [1] read?
**A.** 8.18

**Q.** What about the pIC50 ([2]; Homo sapiens, HUVEC, with albumin, read-out: Huvec + Albumin IC50) of the same compound?
**A.** 6.81

**Q.** What does the source list for `Cc1cc(NC(=O)c2cccc(CCc3cncc4ccccc34)c2)ccc1C(C)C` [Example S-3, N-(4-Isopropyl-3-methyl-phenyl)-3-(2-isoquinolin-4-yl-ethyl)-benzamide]?
**A.** pKi [3]: 8.06; pKi [1]: 9.12; pIC50 [2, 7]: 6.74

**Q.** Which inhibition at 0.05 µM [1, 8] does the source give for `Cc1cc(NC(=O)c2cc(CCc3cncc4ccccc34)c(F)cc2Cl)ccc1C(C)C` [Example S-7, 2-Chloro-4-fluoro-N-(4-isopropyl-3-methyl-phenyl)-5-(2-isoquinolin-4-yl-ethyl)-benzamide] here?
**A.** 19%

**Q.** And the pIC50 [2, 7]?
**A.** < 6.52

**Q.** How did the pKi [1, 5] turn out when `O=C(Nc1cccc(CSc2ncnc3[nH]ncc23)c1)Nc1cc(C(F)(F)F)cc(C(F)(F)F)c1` [Example V-7, N-{3-[(1H-pyrazolo[3,4-d]pyrimidin-4-ylsulfanyl)methyl]phenyl}-N′-[3,5-bis-(trifluoromethyl)phenyl]urea] was run?
**A.** 8.59

**Q.** With `O=C(Nc1cccnc1)Nc1cccc(CSc2ncnc3[nH]ncc23)c1` [Example V-8, N-{3-[(1H-pyrazolo[3,4-d]pyrimidin-4-ylsulfanyl)methyl]phenyl}-N′-(pyridin-3-yl)urea] as the compound, how does the inhibition at 0.05 µM [1, 8] read?
**A.** 0%

**Q.** With `CC(C)(C)c1cc(C(=O)Nc2cccc(CSc3ncnc4[nH]ncc34)c2)cc(C(C)(C)C)c1` [Example V-9, N-{3-[(1H-pyrazolo[3,4-d]-pyrimidin-4-yl)sulfanylmethyl]phenyl}-(3,5-di-t-butyl)benzamide] as the compound, how does the pKi [1, 5] read?
**A.** 7.66

**Q.** Which inhibition at 50 µM ([1]; @ 50 μM, read-out: FLVK percent inhibition) does the source give for `O=C(Nc1cccc(CSc2ncnc3[nH]ncc23)c1)c1ccc(O)c(Br)c1` [Example V-10, 3-Bromo-4-hydroxy-N-{3-[(1H-pyrazolo[3,4-d]-pyrimidin-4-yl)sulfanylmethyl]phenyl}-benzamide] here?
**A.** 16%

**Q.** Which inhibition at 0.05 µM [1, 8] does the source give for `O=C(Nc1cccc(CSc2ncnc3[nH]ncc23)c1)c1ccc2ncccc2c1` [Example V-11, N-{3-[(1H-pyrazolo[3,4-d]-pyrimidin-4-yl)sulfanylmethyl]phenyl}-quinoline-6-carboxamide] here?
**A.** 18%

**Q.** How did the inhibition at 0.05 µM [1, 8] turn out when `O=C(Nc1cccc(CSc2ncnc3[nH]ncc23)c1)c1cc2cc(F)ccc2[nH]1` [Example V-12, 5-Fluoro-N-{3-[(1H-pyrazolo[3,4-d]-pyrimidin-4-yl)sulfanylmethyl]-phenyl}-indole-2-carboxamide] was run?
**A.** 18%

**Q.** `O=C(Nc1cccc(CSc2ncnc3[nH]ncc23)c1)c1ccc2cc[nH]c2c1` [Example V-13, N-{3-[(1H-pyrazolo[3,4-d]-pyrimidin-4-yl)sulfanylmethyl]phenyl}-indole-6-carboxamide] was tested. Which inhibition at 0.05 µM [1, 8] did it give?
**A.** 17%
